Measured values: ChEMBL document CHEMBL1275309, “Exploring new inhibitors of Plasmodium falciparum purine nucleoside phosphorylase” (Eur J Med Chem, 2010)

Key:
[1] = system: Plasmodium falciparum; assay: Antiplasmodial activity against erythrocytic stages of Plasmodium falciparum 3D7 after 48 hrs by SYBR green assay; assay type: functional, organism-based; conditions: 3D7, 48 h
[2] = molecular target: T1, Purine nucleoside phosphorylase (Plasmodium falciparum, UniProt Q8T9Z7); assay: Inhibition of Plasmodium falciparum PNP expressed in Escherichia coli BL21(DE3) cells by spectrophotometry
T1 sequence (Q8T9Z7 whole entry): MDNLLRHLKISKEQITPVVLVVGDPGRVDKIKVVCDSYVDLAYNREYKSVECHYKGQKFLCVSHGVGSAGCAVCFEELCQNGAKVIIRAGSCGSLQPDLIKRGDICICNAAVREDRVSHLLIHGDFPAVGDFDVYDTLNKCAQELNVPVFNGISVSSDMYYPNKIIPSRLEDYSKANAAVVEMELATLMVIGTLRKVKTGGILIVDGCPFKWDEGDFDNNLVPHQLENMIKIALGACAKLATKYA

[3] = molecular target: Uridine phosphorylase 1 (Homo sapiens, UniProt Q16831); assay: Inhibition of human uridine phosphorylase
[4] = molecular target: T2, Purine nucleoside phosphorylase (Homo sapiens, UniProt P00491); assay: Inhibition of human PNP
T2 sequence (P00491 whole entry): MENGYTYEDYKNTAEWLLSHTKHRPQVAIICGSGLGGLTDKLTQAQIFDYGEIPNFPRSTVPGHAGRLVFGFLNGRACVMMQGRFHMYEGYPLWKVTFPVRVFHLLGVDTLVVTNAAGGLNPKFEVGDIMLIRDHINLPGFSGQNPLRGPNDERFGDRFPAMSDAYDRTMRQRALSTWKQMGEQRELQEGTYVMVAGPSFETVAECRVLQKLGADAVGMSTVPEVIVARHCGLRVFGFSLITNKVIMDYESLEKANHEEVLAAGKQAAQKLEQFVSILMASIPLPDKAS

Uridine phosphorylase 1, sequence (Q16831 whole entry): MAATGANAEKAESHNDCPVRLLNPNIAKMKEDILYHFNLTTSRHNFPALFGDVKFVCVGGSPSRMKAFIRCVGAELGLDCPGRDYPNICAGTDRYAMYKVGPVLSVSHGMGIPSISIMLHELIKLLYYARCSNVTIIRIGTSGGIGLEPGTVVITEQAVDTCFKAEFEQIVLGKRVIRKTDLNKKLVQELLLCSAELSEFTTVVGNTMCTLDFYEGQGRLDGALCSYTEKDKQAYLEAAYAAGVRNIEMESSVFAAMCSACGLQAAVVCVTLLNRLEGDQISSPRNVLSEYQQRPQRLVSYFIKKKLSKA

SMILES | EC50 [1] [µM] | IC50 [2] [µM] | Ki [2] [µM] | Ki [3] [µM] | Kd [4] [µM]
O=c1ccn(CCCCN2CCCC2)c(=O)[nH]1 | > 1000 | 524 | 105 |  | 
O=c1cc[nH]c(=O)n1CCN1CCC[C@H]1CO | > 1000 | 366 | 75 |  | 
O=C1NC(=O)C(Cc2cccc(OCc3ccccc3)c2)C(=O)N1 |  | > 1000 |  | 2.3 | 
O=c1[nH]cnc2c(CN3CCCC3)c[nH]c12 |  |  |  |  | 0.0055
O=C1NC(=O)N(COCCO)C(=O)C1Cc1cccc(OCc2ccccc2)c1 (stereo not drawn) |  | > 1000 | 0.0011 | 0.0011 | 
O=c1ccn(CCN2CCCC2)c(=O)[nH]1 | > 500 | 141 | 27 |  | 
O=C1NC(=O)C(Cc2ccccc2)C(=O)N1 |  | > 1000 |  |  | 
O=c1cc[nH]c(=O)n1CCN1CCCC1 | > 500 | 42 | 6 |  | 
O=c1ccn(CCCCN2CCC[C@H]2CO)c(=O)[nH]1 | > 1000 | 592 | 113 |  | 
O=c1ccn(CCCN2CCCC2)c(=O)[nH]1 | > 1000 | 230 | 59 |  | 
O=c1ccn(CCCN2CCC[C@H]2CO)c(=O)[nH]1 | 375 | 712 | 136 |  | 
